Source: patent US11312754B2, “Sunflower seed protein-derived peptides” (ACCESS BUSINESS GROUP INTERNATIONAL LLC, priority 2019, dated 2022)
Values after ≈ are worked out from the molar mass of the structure shown. Where a SMILES comes first, the peptide text is derived from it. Where no end group is shown, it is not given here.

Key:
ACE = ACE (Homo sapiens, UniProt P12821); experiment: ACE inhibition assay (FAPGG substrate); type: biochemical; conditions: individual isolated peptides
Procedure: The ability of sample to inhibit in vitro activity of ACE is determined by mixing 1 mL of FAPGG (0.5 mM, dissolved in buffer [50 mM Tris-HCl buffer containing 0.3 M NaCl, pH 7.5]) with 20 μL ACE (1 U/mL, final activity of 20 mU) and 200 μL sample (crude hydrolysate and the protein hydrolysate composition of Fraction 7 of Example 1, each dissolved in buffer to 1 mg/mL). The rate of decrease in absorbance at 345 nm is recorded for 2 min at room temperature. The results of the assay are set forth in Table 3 below, expressed as percent inhibition.
The procedure set forth above for Examples 16 & 17 is repeated using samples containing one of the isolated peptides 1-4 of Fraction 7 of Example 1.

[1] = Hydroxyl radical scavenging activity (HRSA) assay; conditions: individual isolated peptides
Procedure: The hydroxyl radical scavenging activity of crude hydrolysate and the protein hydrolysate composition of Fraction 7 is determined by dissolving samples (crude hydrolysate and the protein hydrolysate composition of Fraction 7 of Example 1) and 1,10-phenanthroline in 0.1 M sodium phosphate buffer (pH 7.4). FeSO4 (3 mM) and 0.01% hydrogen peroxide are separately dissolved in distilled water. An aliquot (50 μL) of samples (final assay concentration of 0.5 mg/mL) or buffer (control) is first added to a clear, flat bottom 96-well plate followed by additions of 50 μL of 1,10-phenanthroline and 50 μL of FeSO4. To initiate reaction in the wells, 50 μL of hydrogen peroxide (H2O2) solution is added to the mixture, which is then covered and incubated at 37° C. for 1 h with shaking. Absorbance is measured at 536 nm every 10 min for a period of 1 h.
The procedure set forth above for Examples 12 & 13 is repeated using samples containing one of the isolated peptides 1-4 of Fraction 7 of Example 1.

human recombinant renin = molecular target: T1, human recombinant renin (Homo sapiens, UniProt P00797); experiment: Renin inhibition assay (Renin Inhibitor Screening Assay Kit); type: biochemical; conditions: individual isolated peptides, 1 mg/mL; read-out: % Inhibition ± SD of renin activity
T1 construct: purchased
T1 sequence (P00797 67-406): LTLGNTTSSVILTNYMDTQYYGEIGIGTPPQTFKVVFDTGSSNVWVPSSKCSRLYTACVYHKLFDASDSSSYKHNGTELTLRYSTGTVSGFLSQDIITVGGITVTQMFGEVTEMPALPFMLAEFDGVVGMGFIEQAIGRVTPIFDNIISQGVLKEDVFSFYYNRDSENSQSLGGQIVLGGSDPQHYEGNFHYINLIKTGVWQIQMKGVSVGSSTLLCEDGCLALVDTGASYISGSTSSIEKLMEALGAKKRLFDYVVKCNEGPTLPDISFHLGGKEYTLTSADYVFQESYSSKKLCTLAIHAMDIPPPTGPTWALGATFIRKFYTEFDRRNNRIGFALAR
Procedure: In vitro inhibitory activity of human recombinant renin is conducted using a Renin Inhibitor Screening Assay Kit. Samples (crude hydrolysate and the protein hydrolysate composition of Fraction 7 of Example 1) are diluted in Tris-HCl buffer (50 mM, pH 8.0, containing 100 mM NaCl) to a final concentration 0.5 mg/mL, and pre-warmed to 37° C. The reaction is initiated by adding renin (10 μL), shaking for 10 s to mix, and incubating at 37° C. for 15 min. Fluorescence intensity (FI) is then recorded at an excitation wavelength of 340 nm and an emission wavelength of 490 nm using a fluorometric microplate reader. The results of the assay are set forth in Table 3 below, expressed as percent inhibition. The procedure set forth above for Examples 18 & 19 is repeated at 1 mg/mL concentrations using samples containing one of the isolated peptides 1-4 of Fraction 7 of Example 1.

[2] = DPPH radical scavenging assay; conditions: individual isolated peptides
Procedure: The scavenging activity of crude hydrolysate and the protein hydrolysate composition of Fraction 7 against DPPH is determined by first dissolving samples (crude hydrolysate and the protein hydrolysate composition of Fraction 7 of Example 1) in 0.1 M sodium phosphate buffer, pH 7.0 containing 1% (w/v) Triton X-100. DPPH is dissolved in methanol to a final concentration of 100 μM, and mixed with the samples in the 96-well plate to a final assay concentration of 1 mg/mL. The samples are then incubated at room temperature in the dark for 30 min, and the absorbance read at 517 nm.
The procedure set forth about for Examples 10 & 11 is repeated using samples containing one of the isolated peptides 1-4 of Fraction 7 of Example 1.

ACE, sequence (P12821 30-1306, species assumed): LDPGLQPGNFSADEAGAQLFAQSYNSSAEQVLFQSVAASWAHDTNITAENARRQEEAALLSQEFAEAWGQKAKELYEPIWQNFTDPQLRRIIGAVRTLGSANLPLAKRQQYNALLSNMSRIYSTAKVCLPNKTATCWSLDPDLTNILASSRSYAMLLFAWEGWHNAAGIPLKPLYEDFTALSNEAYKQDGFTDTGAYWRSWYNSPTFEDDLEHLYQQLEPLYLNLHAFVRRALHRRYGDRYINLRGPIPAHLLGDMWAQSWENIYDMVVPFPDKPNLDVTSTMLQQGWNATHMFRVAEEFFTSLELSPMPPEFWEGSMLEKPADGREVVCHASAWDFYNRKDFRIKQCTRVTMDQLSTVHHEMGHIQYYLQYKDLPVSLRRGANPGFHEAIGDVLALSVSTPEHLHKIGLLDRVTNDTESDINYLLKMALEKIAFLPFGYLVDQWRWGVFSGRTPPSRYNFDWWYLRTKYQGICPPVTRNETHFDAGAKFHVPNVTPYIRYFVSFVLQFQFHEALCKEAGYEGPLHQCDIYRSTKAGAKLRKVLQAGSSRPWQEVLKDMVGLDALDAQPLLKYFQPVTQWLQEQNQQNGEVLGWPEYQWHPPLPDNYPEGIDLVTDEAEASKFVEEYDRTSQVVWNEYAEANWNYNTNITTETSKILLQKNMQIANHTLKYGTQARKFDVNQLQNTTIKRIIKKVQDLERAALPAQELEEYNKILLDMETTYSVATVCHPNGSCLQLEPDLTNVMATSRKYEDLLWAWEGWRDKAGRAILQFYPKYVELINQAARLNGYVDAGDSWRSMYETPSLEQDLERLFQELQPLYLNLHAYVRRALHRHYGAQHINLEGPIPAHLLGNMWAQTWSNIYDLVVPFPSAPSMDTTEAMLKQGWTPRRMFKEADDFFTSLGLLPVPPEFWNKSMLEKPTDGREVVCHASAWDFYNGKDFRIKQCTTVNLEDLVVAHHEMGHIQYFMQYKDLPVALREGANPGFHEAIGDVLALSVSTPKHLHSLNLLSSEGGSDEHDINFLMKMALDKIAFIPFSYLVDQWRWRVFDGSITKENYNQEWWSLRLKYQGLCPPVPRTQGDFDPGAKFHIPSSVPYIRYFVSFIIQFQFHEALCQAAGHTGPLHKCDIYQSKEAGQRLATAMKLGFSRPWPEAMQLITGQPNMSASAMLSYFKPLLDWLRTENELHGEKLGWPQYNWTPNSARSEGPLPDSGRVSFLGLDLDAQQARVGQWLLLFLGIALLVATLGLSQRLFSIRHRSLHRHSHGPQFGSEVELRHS

IC50 (ACE) | IC50 hydrogen (hydroxyl) radical scavenging [1] | inhibition at 1000 µg/mL (human recombinant renin) | IC50 DPPH radical scavenging [2] | Compound
35.7 µM | 2500 ± 30 µg/mL | -46.4 ± 1.56% | 4690 ± 50 µg/mL | MVWGP [Peptide 3, Met-Val-Trp-Gly-Pro]
961 µM | 1900 ± 80 µg/mL | -54.5 ± 1.48% | 28340 ± 380 µg/mL | SGRDP [Peptide 2, Ser-Gly-Arg-Asp-Pro]
557 µM | 1840 ± 10 µg/mL | 107 ± 17.6% | 4260 ± 30 µg/mL | TGSYTEGWS [Peptide 4, Thr-Gly-Ser-Tyr-Thr-Glu-Gly-Trp-Ser]

Compound | IC50 (ACE) | IC50 hydrogen (hydroxyl) radical scavenging [1] | inhibition at 1000 µg/mL (human recombinant renin) | IC50 DPPH radical scavenging [2]
CC(C)[C@H](NC(=O)[C@H](Cc1ccccc1)NC(=O)[C@@H](N)Cc1ccc(O)cc1)C(=O)N1CCC[C@H]1C(=O)O [Peptide 1, Tyr-Phe-Val-Pro] (H-YFVP-OH; N-terminus and C-terminus assumed) | 477 µM | 1930 ± 20 µg/mL (≈ 3.68 mM) | -40.5 ± 6.23% | 3850 ± 130 µg/mL (≈ 7.34 mM)
